This note sets out measurements from patent publication US9073967B2, “High salt-resistance antibacterial peptide and method for producing the same” (NATIONAL TSING HUA UNIVERSITY, priority 2011, dated 2015).

Structures are written as SMILES. Converted amounts (≈) assume the structure as drawn. Some results are limits rather than exact numbers.

The subject of experiment [1] is C. albicans HIV patient YHO50001. The experiment is described as follows: organism not typed.
Experiment [2] has as its system C. albicans HIV patient YHO50005. The experiment is described as follows: organism not typed.
Experiment [3] deals with C. tropicalis HIV patient YHO50007. The experiment is described as follows: organism not typed.
Experiment [4] deals with C. tropicalis HIV patient YHO50013. The experiment is described as follows: organism not typed.
Experiment [5] concerns C. albicans HIV patient YHO50072. The experiment is described as follows: organism not typed.
The test system of experiment [6] is C. krusei HIV patient YHO50075. The experiment is described as follows: organism not typed.
The subject of experiment [7] is C. dubliniensis HIV patient YHO50092. The experiment is described as follows: organism not typed.
The test system of experiment [8] is C. glabrata HIV patient YHO50105. The experiment is described as follows: organism not typed.
The subject of experiment [9] is C. tropicalis HIV patient YHO50114. The experiment is described as follows: organism not typed.
Another experiment relates to C. krusei ATCC 6258 YLO6. The experiment is described as follows: microbe, parasite or virus in culture. The following applies: Pichia kudriavzevii, ATCC6258.
Experiment [10] has as its system C. parapsilosis ATCC 22019 YLO7. The experiment is described as follows: microbe, parasite or virus in culture. The settings on record: Lodderomyces parapsilosis, ATCC22019.
In experiment [11] the test system is C. glabrata ATCC 9003 YLO8. The experiment is described as follows: microbe, parasite or virus in culture. The following applies: Nakaseomyces glabratus, ATCC9003.
For experiment [12], the system named is C. albicans ATCC 90028 YLO12. The experiment is described as follows: microbe, parasite or virus in culture. The settings on record: Candida albicans, ATCC90028.
Experiment [13] has as its system C. tropicalis ATCC 13803 YLO86. The experiment is described as follows: microbe, parasite or virus in culture. The settings on record: Candida tropicalis, ATCC13803.

With `OC(Cn1cncn1)(Cn1cncn1)c1ccc(F)cc1F` [Flu, fluconazole], the MIC was 2 µg/mL (≈ 6.53 µM) in [1]; 1 µg/mL (≈ 3.27 µM) in experiment [2]; more than 64 µg/mL in experiment [3]; more than 64 µg/mL in [4]; more than 64 µg/mL in [5]; 64 µg/mL (≈ 209 µM) in [6]. For the same compound, the MIC in [7] was 0.5 µg/mL (≈ 1.63 µM); in experiment [8] it was 16 µg/mL (≈ 52.2 µM); in experiment [9], more than 64 µg/mL; in the experiment on C. krusei ATCC 6258 YLO6, 32 µg/mL (≈ 104 µM); in experiment [10] it was 8 µg/mL (≈ 26.1 µM); in [11], 16 µg/mL (≈ 52.2 µM). The MIC was 1 µg/mL (≈ 3.27 µM) in [12] and more than 64 µg/mL in experiment [13].
